According to patent US20230150920A1, “SALTS AND SOLID FORMS OF 4-BROMO-2,5-DIMETHOXYPHENETHYLAMINE” (priority 2021, published 2023):
“Also recorded” adds a separate entry of the source.

Columns and labels:
[1] = Water activity slurry experiments, 2C-B HCl Form A vs Form C; format: physicochemical; conditions: slurry of Form A at ambient temperature
[2] = test system: TNF-α; assay: LPS-induced TNF-α release ex vivo in whole blood of dosed rats; design: species or system rat; conditions: for TNF alpha levels, LPS low dose: LPS 1 μg/mL
Excerpt: The bacterial endotoxin lipopolysaccharide (LPS) induces a strong inflammatory response from normal animal immune systems. This response is triggered when LPS is recognized by the innate immune system via the Toll Like Receptor (TLR4) particularly those located on monocytes and macrophages although they are also located on a wide variety of other cell types. Stimulation of the TLR4 receptor leads to recruitment and activation of IL-1R associated kinase 1 (IRAK-1) initiating a series of signalling events in immunoregulatory pathways such as activation of NF kappa B, p38 MAP Kinase, ERK and JNK and AP-1. These changes promote gene transcription and thereby potentiate secretion of pro inflammatory factors such as TNF alpha and other cytokines (Fang et al., 2004).
Determination of the effects of novel agents against LPS-induced TNF alpha release ex vivo provides an assessment of whether the plasma level of compound achieved after administration to whole animal is capable of affecting the inflammatory response.
Dexamethasone disodium phosphate salt was formulated in water to a concentration of 0.6 mg free base/mL to give a dose of 3 mg free base/kg when orally administered in a 5 mL/kg dosing volume. 2C-B hydrochloride was formulated in Vehicle 1 (saline) at concentrations of […]. This provided doses of 0.1 and 1 mg/kg respectively when injected ip in 5 mL/kg dosing volumes. Ex vivo formulation
LPS were dissolved in saline to concentrations of 0.2 and 0.6 mg/mL. This will then be diluted 10 fold in saline to give concentrations of 0.02 and 0.06 mg/mL that will provide concentrations of 1 and 3 μg/mL when 15 uL is added to 285 of whole blood (20 fold dilution).
Twenty four male SD rats (approximately 200 g), were group housed. Animals were maintained under a 12 h light/dark cycle, where temperature and humidity are controlled. Animals were allowed free access to food and water.
Rats were allocated to treatment groups of 6 and habituated to the test room on the day prior to the study. On the test day, rats were dosed orally with either water or dexamethasone 3 mg/kg in 5 mL/kg dosing volumes. Thirty minutes later the animals were dosed intraperitoneally with either saline or 2C-B in 5 mL/kg dosing volumes. After a further 90 minutes terminal blood samples were collected by cardiac puncture under CO2. • Three aliquots, each of 285 μL from each animal's blood sample were pipetted into separate Eppendorf tubes. • Tubes were left for 10 min • Assay tubes will then be mixed gently before adding 15 μL of saline or LPS to give final concentrations of 1 and 3 μg/ml. • After a further gentle mixing, assay tubes were placed in an incubator at 37° C. for 24 h. • At the end of this time, the whole blood aliquots were spun down to plasma. The plasma were then removed and placed in duplicate 96 well plates on dry ice. Plates were stored at −20° C. until analyzed for TNF-α after 10-fold dilution.
The TNF-alpha content of the collected rat plasmas samples were measured using a Rat TNF-alpha Quantikine ELISA Kit (cat no RTA00).
A 1-way ANOVA was conducted across the vehicle and 3 treatment groups (0.1 mg/kg 2C-B IP, 1 mg/kg 2C-B IP, and 3 mg/kg dexamethasone PO) independently for 3 stimulation conditions (no stimulation [saline], 1 μg/mL LPS, and 3 μg/mL LPS). […] Each group was compared to the vehicle group and a p-value for treatment determined by Fishers Least Significant Difference (LSD) test, without statistical penalty for multiple comparisons. […]

[3] = test system: Male Sprague-Dawley rats; assay: Rat elevated zero-maze model of anxiety; format: in vivo
Excerpt: The rat zero-maze model is a refined alternative to the plus-maze, the most widely used animal model of anxiety, and consists of an elevated annular platform, divided equally into four quadrants. Two opposite quadrants are enclosed by Perspex walls on both the inner and the outer edges of the platform, while the remaining two opposite quadrants are open being enclosed only by a Perspex “lip”. Animals will show a preference for the closed areas, and avoidance of the open sections is assumed to stem from a rodent's natural aversion to open, exposed spaces. A reduction in the amount of activity on the open areas is considered to reflect an increase in anxiety (shepherd 1994). The ethologically-based behavior rearing was also assessed as an index of anxiety with a decrease in rearing indicative of an […] effect [(a) File 1985, Boissier 1976; (b) File, S. E. (1985). What can be learned from the effects of benzodiazepines on exploratory behavior? Neuroscience & Biobehavioral Reviews, 9(1), 45-54. doi:10.1016/0149-7634(85)90031-4; (c) Boissier, J. R., P. Simon and P. Soubrie. New approaches to the study of anxiety and anxiolytic drugs in animals. […]
Subjects were weighed and tail marked before being injected. After a specified pre-treatment time, subjects were placed in a closed quadrant and a 5-min test period were recorded on videotape for subsequent analysis. […] Animals are scored as being in the open area when all four paws were in an open quadrant and in the closed area only when all four paws have passed over the open-closed divide. […]
30 male Sprague-Dawley rats in treatment groups of 5, was intraperitoneally dosed with either Vehicle 1 (saline) or 2C-B at 1 of 4 dose levels (0.1, 1, 2 & 5 mg/kg) or chlordiazepoxide (6 mg/kg) in 5 mL/kg injection volumes. Thirty min later at T=0, rats were individually placed in a closed arm of the zero-maze and behavior was assessed by a “blind” observer using remote video monitoring over the subsequent 5 min. […]
Data was analysed with Statistica software (Statsoft USA version 10.0). […]

[4] = Dynamic vapor sorption/desorption (DVS), hygroscopicity; format: physicochemical
Description: The active pharmaceutical ingredient (API), 4-bromo-2,5-dimethoxyphenethylamine hydrochloride, is characterized to evaluate its physical properties. The evaluation is performed by X-ray powder diffraction (XRPD), polarized light microscopy (PLM), differential scanning calorimetry (DSC), thermogravimetry (TG), dynamic vapor sorption/desorption (DVS), and/or solubility testing in organic solvents, water, and mixed solvent systems. XRPD data are used to assess crystallinity. PLM data are used to evaluate crystallinity and particle size/morphology. DSC data are used to evaluate melting point, thermal stability, and crystalline form conversion. TG data are used to evaluate if the API is a solvate or hydrate, and to evaluate thermal stability. DVS data are used to evaluate hygroscopicity of the API and if hydrates can be formed at high relative humidity.
The form characterized in FIGS. 1 and 2 is designated as Form A herein. […] A sharp endotherm at 238° C. in the DSC thermogram is attributed to melting.

[5] = Dynamic vapor sorption (DVS) with XRPD of the post-DVS sample; format: physicochemical
Description: Dynamic Vapor Sorption (DVS) analysis was carried out using a TA Instruments Q5000 Dynamic Vapor Sorption analyzer. The instrument was calibrated with standard weights and a sodium bromide standard for humidity. Approximately 10-25 mg of sample was loaded into a metal-coated quartz pan for analysis. The sample was analyzed at 25° C. with a maximum equilibration time of one hour in 10% relative humidity (RH) steps from 5 to 95% RH (adsorption cycle) and from 95 to 5% RH (desorption cycle). The movement from one step to the next occurred either after satisfying the equilibrium criterion of 0.01% weight change or, if the equilibrium criterion was not met, after one hour. The percent weight change values were calculated using Microsoft Excel.
(§1) The DVS analysis was carried out using a TA Instruments Q5000 Dynamic Vapor Sorption analyzer. 13.5 mg of sample was loaded into a metal-coated quartz pan for analysis. After equilibration to 5% relative humidity (RH), the sample was analyzed at 25° C. in 10% RH steps from 5 to 95% RH (adsorption cycle) and from 95 to 5% RH (desorption cycle). The movement from one step to the next occurred either after satisfying the equilibrium criterion of 0.01% weight change in 5 minutes or, if the equilibrium criterion was not met, after 90 minutes. The percent weight change values are calculated using Microsoft Excel®.
as §1, with “DVS analyses were” for “DVS analysis was”, “analyzer. Approximately 7-11” for “analyzer. 13.5”, “equilibration at” for “equilibration to”, “values were” for “values are”
as §1, with “analyzer. Approximately 2” for “analyzer. 13.5”, “equilibration at” for “equilibration to”, “values were” for “values are”

SMILES: COc1cc(CCN)c(OC)cc1Br.Cl [Form C, 4-bromo-2,5-dimethoxyphenethylamine HCl]
- water activities at which the form was obtained or remained unchanged ([1]; HCl): ≥ 0.6

SMILES: COc1cc(CCN)c(OC)cc1Br [2C-B, 4-bromo-2,5-dimethoxyphenethylamine]
- TNF alpha levels, LPS low dose ([2]; 0.1 mg/kg ip): no difference vs placebo
- TNF alpha levels, LPS low dose ([2]; 1 mg/kg ip): trended towards significance
- TNF alpha levels, high level of LPS ([2]; 1 mg/kg ip, LPS 3 μg/ml, 1-way ANOVA): significant decrease in TNF alpha levels
- TNF alpha levels in the absence of LPS ([2]; no stimulation (saline), 2C-B 0.1 and 1 mg/kg ip, dexamethasone 3 mg/kg po): no effect
- amount of TNF alpha released in response to LPS ([2]; pre-treatment in vivo ip, LPS 1 and 3 μg/mL): reduced the amount of TNF alpha released in response to LPS
- frequency of rearing ([3]; ip 1 mg/kg, 2 mg/kg, and 5 mg/kg doses): decreased the frequency of rearing as effectively as the benzodiazepine chlordiazepoxide
- frequency of rearing ([3]; ip 5 mg/kg): greatest numerical effect
- frequency of rearing ([3]; ip 0.1, 1, 2 & 5 mg/kg, 30 min before 5-min test): significantly reduced the number of rears in a dose dependent manner; also recorded: as effective as the chlordiazepoxide control

SMILES: COc1cc(CCN)c(OC)cc1Br.Cl [Form A, 4-bromo-2,5-dimethoxyphenethylamine hydrochloride]
- hygroscopicity based on DVS data [4]: slightly hygroscopic
- Form change after moisture sorption/desorption (DVS) ([4]; loses all the gained moisture): without form change
- hygroscopicity based on DVS data ([5]; 25° C., 5 to 95% RH): slightly hygroscopic
- behaviour on desorption / form change by XRPD of post-DVS sample ([5]; desorption 95 to 5% RH): loses all the gained moisture without form change
- water activities at which the form was obtained or remained unchanged ([1]; hydrochloride): ≤ 0.5
